Assay results from ChEMBL document CHEMBL1141665, “Quantitative structure-activity relationship studies of a series of non-benzodiazepine structural ligands binding to benzodiazepine receptor” (Eur J Med Chem, 2008).

Experiment: Displacement of [3H]diazepam from GABAA/BzR in rat brain membrane
Assay type: cell membranes

Row | Structure (SMILES) | pIC50
1 | Cc1cc(-n2[nH]c3c(cnc4cc(Cl)ccc43)c2=O)cs1 | 8.96
2 | Cc1ccc2c(c1)ncc1c(=O)n(-c3csc(C)c3)[nH]c12 | 8.87
3 | O=c1c2cnc3ccccc3c2[nH]n1-c1csc(Cl)c1 | 8.99
4 | Cc1cc(-n2[nH]c3c(cnc4cc(F)ccc43)c2=O)cs1 | 9.05
5 | Cc1cc(-n2[nH]c3c(cnc4ccccc43)c2=O)cs1 | 9.35
6 | Cc1cc(-n2nc3c4cc(Cl)ccc4[nH]cc-3c2=O)cs1 | 9.06
7 | Cc1ccc2[nH]cc3c(=O)n(-c4csc(C)c4)nc-3c2c1 | 9.27
8 | Cc1cc(-n2nc3c4cc(F)ccc4[nH]cc-3c2=O)cs1 | 9.29
9 | Cc1cc(-n2nc3c4ccccc4n(C)cc-3c2=O)cs1 | 6.52
10 | COc1cc2c(cn1)[nH]c1ccccc12 | 6.91
11 | Clc1cc2c(cn1)[nH]c1ccccc12 | 7.35
12 | Cn1c2ccccc2c2c1ccc1c3ccccc3n(C)c12 | 5.72
13 | CCOC(=O)c1cc2c(cn1)sc1ccccc12 | 5.77
14 | CCOC(=O)c1cc2c(cn1)Cc1ccccc1-2 | 6.17
15 | CCOC(=O)c1cc2c(cn1)oc1ccccc12 | 5.04
16 | O=[N+]([O-])c1ccc2[nH]c3c[nH]c4c5cc(Cl)ccc5nc-4c3c2c1 | 5.92
17 | O=[N+]([O-])c1ccc2[nH]c3c[nH]c4c5ccc(Cl)cc5nc-4c3c2c1 | 6.9
18 | COC(=O)c1cc2c(cn1)[nH]c1ccccc12 [BETA-CCM] | 8.3
19 | O=C1C2C=Nc3ccccc3C2=NN1c1ccccc1 (centres undefined) [CGS-8216] | 9.51
20 | O=C1C2C=Nc3ccccc3C2=NN1c1ccc(Cl)cc1 (centres undefined) [CGS-9896] | 8.94
21 | Cc1nccc2c1[nH]c1ccccc12 [HARMAN] | 4.91
22 | c1ccc2c(c1)[nH]c1cnccc12 [NORHARMANE] | 5.79

Results, then the compound that gave them:

Row | pIC50 | Structure (SMILES)
23 | 6.12 | Brc1ccc2[nH]c3c4c5ccccc5nc-4c[nH]c3c2c1
24 | 7.55 | Brc1cccc2c1[nH]c1c3c4ccccc4nc-3c[nH]c12
25 | 5.94 | Cn1c2ccccc2c2c3[nH]c4ccccc4c3ncc21
26 | 5.4 | Oc1cc2c3ccccc3nc-2c[nH]1
27 | 8.4 | c1ccc2c(c1)[nH]c1c2ncc2[nH]c3ccccc3c21
28 | 6.15 | Clc1cccc2[nH]c3c4c5ccccc5nc-4c[nH]c3c12
29 | 6.65 | Cc1ccc2[nH]c3c4c5ccccc5nc-4c[nH]c3c2c1
30 | 8.22 | Fc1ccc2[nH]c3c4c5ccccc5nc-4c[nH]c3c2c1
31 | 7.92 | Fc1cccc2c1[nH]c1c3c4ccccc4nc-3c[nH]c12
32 | 5.67 | Clc1ccc2[nH]c3c4c5ccccc5nc-4c[nH]c3c2c1
33 | 6.24 | Oc1cccc2[nH]c3c4c5ccccc5nc-4c[nH]c3c12
34 | 8.99 | O=c1c2cnc3ccccc3c2[nH]n1-c1ccsc1
35 | 6.05 | COc1ccc2[nH]c3c4c5ccccc5nc-4c[nH]c3c2c1
36 | 7.72 | Brc1ccc2c(c1)[nH]c1c3c4ccccc4nc-3c[nH]c12
37 | 8 | Clc1ccc2c(c1)[nH]c1c2ncc2[nH]c3ccccc3c21
38 | 8.1 | COc1ccc2c(c1)[nH]c1c2ncc2[nH]c3ccccc3c21

Row | pIC50 | Structure (SMILES)
39 | 8.22 | Brc1ccc2[nH]c3cnc4c5ccccc5[nH]c4c3c2c1
40 | 5.8 | c1ccc(Oc2ccc3[nH]c4c(ncc5[nH]c6ccccc6c54)c3c2)cc1
41 | 6.9 | O=[N+]([O-])c1cc2c3ccccc3nc-2c[nH]1
42 | 8.1 | Cc1ccc2c(c1)[nH]c1c3c4ccccc4nc-3c[nH]c12
43 | 7.08 | Cc1cccc2c1[nH]c1c3c4ccccc4nc-3c[nH]c12
44 | 6.6 | COc1cccc2[nH]c3c4c5ccccc5nc-4c[nH]c3c12
45 | 6.8 | Cn1c2ccccc2c2[nH]cc3nc4ccccc4c-3c21
46 | 6.6 | CCc1nc2c3ccccc3[nH]c2c2c1[nH]c1ccccc12
47 | 6.51 | Clc1ccc2[nH]c3c[nH]c4c5cccc(Cl)c5nc-4c3c2c1
48 | 8.22 | Oc1ccc2c(c1)[nH]c1c3c4ccccc4nc-3c[nH]c12
49 | 7.36 | Nc1ccc2[nH]c3c[nH]c4c5ccccc5nc-4c3c2c1
50 | 7.1 | Clc1cccc2c1[nH]c1c3c4ccccc4nc-3c[nH]c12
51 | 8.4 | O=[N+]([O-])c1ccc2[nH]c3c[nH]c4c5ccccc5nc-4c3c2c1
52 | 8.15 | Fc1ccc2c(c1)[nH]c1c3c4ccccc4nc-3c[nH]c12
53 | 6.94 | Oc1ccc2[nH]c3c4c5ccccc5nc-4c[nH]c3c2c1
54 | 7.01 | Nc1ccc2[nH]c3c[nH]c4c5ccc(Cl)cc5nc-4c3c2c1
